# From ChEMBL document CHEMBL1201862, “PubChem BioAssay data set” (2004)
# Calls of active or inactive are those of the source.
# Tests used:
# Fatty acid synthase [1] = molecular target: T1, Fatty acid synthase (Homo sapiens, UniProt P49327); test: inhibition of human FAS-TE enzyme activity – biochemical, endpoint fluorescence intensity, uHTS hits, dose response (AID 624327); type: functional;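 also: fluorescence from hydrolysis of an O-methyl fluorescein acyl ester substrate by the enzyme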
# Fatty acid synthase [2] = molecular target: T1, Fatty acid synthase; test: inhibition of human FAS-TE enzyme activity – biochemical, kinetic fluorescence intensity, dose response (AID 624326); type: functional;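 also: rate of fluorescence rise from hydrolysis of a fluorogenic O-methyl fluorescein ester substrate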
# Leucine aminopeptidase = molecular target: T2, Leucine aminopeptidase (Plasmodium falciparum 3D7, UniProt Q8IL11); test: P. falciparum M17LAP inhibitors, primary screen, biochemical, fluorogenic H-Leu-NHMec substrate, 1536-well (AID 1619); type: functional
# T2 sequence (Q8IL11 whole entry): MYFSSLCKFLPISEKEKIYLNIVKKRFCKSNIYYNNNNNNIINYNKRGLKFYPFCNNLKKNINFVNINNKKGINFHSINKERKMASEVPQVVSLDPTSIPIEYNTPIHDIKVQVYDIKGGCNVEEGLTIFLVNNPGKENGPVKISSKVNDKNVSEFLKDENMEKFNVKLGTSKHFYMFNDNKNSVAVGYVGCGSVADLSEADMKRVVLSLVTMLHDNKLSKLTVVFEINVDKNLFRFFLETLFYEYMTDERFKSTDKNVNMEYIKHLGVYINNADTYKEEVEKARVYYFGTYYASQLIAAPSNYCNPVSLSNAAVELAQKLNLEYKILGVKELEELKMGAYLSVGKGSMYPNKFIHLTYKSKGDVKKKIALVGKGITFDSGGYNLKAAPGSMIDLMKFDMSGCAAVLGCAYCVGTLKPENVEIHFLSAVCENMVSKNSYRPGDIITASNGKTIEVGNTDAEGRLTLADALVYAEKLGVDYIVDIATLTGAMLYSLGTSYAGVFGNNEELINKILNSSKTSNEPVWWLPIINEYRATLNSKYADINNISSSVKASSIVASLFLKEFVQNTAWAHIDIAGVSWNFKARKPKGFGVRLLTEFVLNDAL
# [3] = HIV-1 Vif–A3G interaction blockers – biochemical, TR-FRET, GST-Vif 1-94, biotin-A3G peptide, dose response retest, primary screen (AID 1117319); type: functional;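 also: TR-FRET signal of purified GST-Vif binding a biotinylated A3G peptide; inhibitors lower the FRET signal by blocking Vif and A3G binding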
# [4] = molecular target: T3, DNA repair protein RAD52 homolog (Homo sapiens, UniProt P43351); type: functional, biochemical
# T3 sequence (P43351 whole entry): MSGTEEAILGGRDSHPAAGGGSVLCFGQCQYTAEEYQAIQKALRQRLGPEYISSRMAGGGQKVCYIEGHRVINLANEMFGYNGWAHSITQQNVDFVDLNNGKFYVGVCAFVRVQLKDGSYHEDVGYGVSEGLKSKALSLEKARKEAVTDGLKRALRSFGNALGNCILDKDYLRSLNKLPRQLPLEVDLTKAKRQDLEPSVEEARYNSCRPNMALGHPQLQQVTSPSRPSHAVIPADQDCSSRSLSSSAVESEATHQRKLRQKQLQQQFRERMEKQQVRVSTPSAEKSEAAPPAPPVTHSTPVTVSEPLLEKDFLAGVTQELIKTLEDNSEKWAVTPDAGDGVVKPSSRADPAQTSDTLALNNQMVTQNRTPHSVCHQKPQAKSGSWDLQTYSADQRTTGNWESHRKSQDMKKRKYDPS
# [5] = molecular target: T4, Apoptotic protease-activating factor 1 (Homo sapiens, UniProt O14727); type: functional
# T4 sequence (O14727 whole entry): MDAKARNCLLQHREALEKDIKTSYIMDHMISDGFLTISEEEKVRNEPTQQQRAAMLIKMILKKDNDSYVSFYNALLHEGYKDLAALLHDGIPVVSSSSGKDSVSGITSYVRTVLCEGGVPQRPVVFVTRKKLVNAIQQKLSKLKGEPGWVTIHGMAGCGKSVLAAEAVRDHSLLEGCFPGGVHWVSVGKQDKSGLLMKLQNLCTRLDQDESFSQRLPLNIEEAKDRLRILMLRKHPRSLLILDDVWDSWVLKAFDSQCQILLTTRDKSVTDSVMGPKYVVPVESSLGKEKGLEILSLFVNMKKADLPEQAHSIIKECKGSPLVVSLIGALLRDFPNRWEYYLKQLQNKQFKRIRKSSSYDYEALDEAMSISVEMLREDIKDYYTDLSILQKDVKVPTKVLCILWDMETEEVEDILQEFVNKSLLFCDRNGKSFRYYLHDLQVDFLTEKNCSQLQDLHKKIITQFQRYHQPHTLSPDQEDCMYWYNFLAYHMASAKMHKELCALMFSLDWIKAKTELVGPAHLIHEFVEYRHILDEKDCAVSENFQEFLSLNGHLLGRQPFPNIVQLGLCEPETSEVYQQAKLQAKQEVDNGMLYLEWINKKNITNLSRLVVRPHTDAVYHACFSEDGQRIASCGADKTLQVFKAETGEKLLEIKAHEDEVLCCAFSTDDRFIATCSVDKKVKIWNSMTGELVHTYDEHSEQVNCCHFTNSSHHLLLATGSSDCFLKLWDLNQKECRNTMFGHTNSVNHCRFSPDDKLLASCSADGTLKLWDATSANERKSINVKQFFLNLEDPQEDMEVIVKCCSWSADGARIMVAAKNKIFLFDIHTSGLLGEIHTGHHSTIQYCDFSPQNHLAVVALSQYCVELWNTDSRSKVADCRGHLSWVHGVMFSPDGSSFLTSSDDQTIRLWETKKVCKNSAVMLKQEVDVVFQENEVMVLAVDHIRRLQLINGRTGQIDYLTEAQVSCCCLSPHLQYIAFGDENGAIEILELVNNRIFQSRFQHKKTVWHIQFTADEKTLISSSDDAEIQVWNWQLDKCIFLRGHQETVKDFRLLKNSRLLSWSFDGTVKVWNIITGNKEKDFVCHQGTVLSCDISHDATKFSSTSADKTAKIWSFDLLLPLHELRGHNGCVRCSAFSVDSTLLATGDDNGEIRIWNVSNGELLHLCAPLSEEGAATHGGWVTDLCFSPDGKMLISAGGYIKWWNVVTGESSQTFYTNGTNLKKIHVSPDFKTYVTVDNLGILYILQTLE
# Paired box protein Pax-8 = Paired box protein Pax-8 (Homo sapiens, UniProt Q06710); test: PAX8 transcriptional activity inhibition in RMG-I – RMG-I cells, luciferase, cherry-pick, dose response (AID 687027); type: functional, cell-based;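 also: luciferase reporter driven by Pax8 target thyroperoxidase promoter measured by SteadyGlo luminescence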
# [6] = inhibitors acting on PAX2 in cells – cell-based, plate reader, dry powder samples, selectivity assay for PAX8 inhibitor project, dose response (AID 743048); type: functional;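 also: HEK293 cells carrying a WT1 promoter luciferase reporter driven by expressed Pax2; potency is for inhibition of Pax2 driven reporter signal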
# [7] = PAX8-dependent cell viability loss – plate reader, dry powder, dose response (AID 743049); type: functional, cell-based
# [8] = OVCAR8 cell viability loss – plate reader, dry powder samples, PAX8 project, dose response (AID 743197); type: functional, cell-based; settings: OVCAR-8
# Aminopeptidase N = molecular target: T5, Aminopeptidase N (Plasmodium falciparum FcB1/Columbia, UniProt O96935); test: malaria alanyl aminopeptidase activity blockers – biochemical, fluorogenic H-Leu-NHMec substrate, 1536-well (AID 1445); design: species or system Plasmodium falciparum 3D7, 3D7
# T5 sequence (O96935 whole entry): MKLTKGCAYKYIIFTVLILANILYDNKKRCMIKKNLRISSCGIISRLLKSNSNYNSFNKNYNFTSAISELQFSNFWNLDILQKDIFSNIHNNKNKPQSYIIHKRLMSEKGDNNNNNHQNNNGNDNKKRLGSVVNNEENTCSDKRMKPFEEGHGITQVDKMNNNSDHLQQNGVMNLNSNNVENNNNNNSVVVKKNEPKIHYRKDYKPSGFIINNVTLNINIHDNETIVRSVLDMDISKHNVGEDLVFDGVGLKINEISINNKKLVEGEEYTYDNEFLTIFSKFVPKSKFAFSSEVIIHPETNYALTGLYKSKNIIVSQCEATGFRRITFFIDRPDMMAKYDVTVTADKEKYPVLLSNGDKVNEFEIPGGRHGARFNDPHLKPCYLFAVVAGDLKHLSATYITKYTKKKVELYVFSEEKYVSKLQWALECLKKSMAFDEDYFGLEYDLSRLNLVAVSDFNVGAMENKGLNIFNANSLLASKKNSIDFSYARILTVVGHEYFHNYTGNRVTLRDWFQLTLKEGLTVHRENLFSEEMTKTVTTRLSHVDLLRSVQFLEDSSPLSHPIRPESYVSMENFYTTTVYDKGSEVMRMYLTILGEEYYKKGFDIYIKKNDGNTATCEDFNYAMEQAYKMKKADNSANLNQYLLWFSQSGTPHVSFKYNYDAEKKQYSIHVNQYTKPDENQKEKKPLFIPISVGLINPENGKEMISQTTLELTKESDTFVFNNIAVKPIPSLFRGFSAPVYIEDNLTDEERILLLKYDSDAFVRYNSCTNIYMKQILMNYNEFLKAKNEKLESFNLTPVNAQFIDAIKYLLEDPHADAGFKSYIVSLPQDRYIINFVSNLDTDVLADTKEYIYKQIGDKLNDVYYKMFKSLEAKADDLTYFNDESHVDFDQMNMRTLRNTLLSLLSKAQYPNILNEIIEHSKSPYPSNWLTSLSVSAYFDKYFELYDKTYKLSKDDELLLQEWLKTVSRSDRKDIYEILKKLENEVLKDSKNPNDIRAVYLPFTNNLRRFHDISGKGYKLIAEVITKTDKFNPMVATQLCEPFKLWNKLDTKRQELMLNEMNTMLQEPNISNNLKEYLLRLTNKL
# H9c2 = test: cells; type: functional, cell-based; settings: Rattus norvegicus, H9c2, Myocardium;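 also: confirmatory concentration-response retest of ultra-high-throughput screening hits for modulation of myocardial damage; cell death induced by hydrogen peroxide oxidative stress; compound pretreatment for 60 min then peroxide exposure for 2 h; potency is for protecting the cells against peroxide damage rather than for killing them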
# [9] = molecular target: T6, DNA repair and recombination protein RAD54-like (Homo sapiens, UniProt Q92698); test: RAD54 Holliday junction migration blockers – biochemical, fluorescence, cherry-picked samples, dose series, confirmation (AID 651657); type: functional
# T6 sequence (Q92698 whole entry): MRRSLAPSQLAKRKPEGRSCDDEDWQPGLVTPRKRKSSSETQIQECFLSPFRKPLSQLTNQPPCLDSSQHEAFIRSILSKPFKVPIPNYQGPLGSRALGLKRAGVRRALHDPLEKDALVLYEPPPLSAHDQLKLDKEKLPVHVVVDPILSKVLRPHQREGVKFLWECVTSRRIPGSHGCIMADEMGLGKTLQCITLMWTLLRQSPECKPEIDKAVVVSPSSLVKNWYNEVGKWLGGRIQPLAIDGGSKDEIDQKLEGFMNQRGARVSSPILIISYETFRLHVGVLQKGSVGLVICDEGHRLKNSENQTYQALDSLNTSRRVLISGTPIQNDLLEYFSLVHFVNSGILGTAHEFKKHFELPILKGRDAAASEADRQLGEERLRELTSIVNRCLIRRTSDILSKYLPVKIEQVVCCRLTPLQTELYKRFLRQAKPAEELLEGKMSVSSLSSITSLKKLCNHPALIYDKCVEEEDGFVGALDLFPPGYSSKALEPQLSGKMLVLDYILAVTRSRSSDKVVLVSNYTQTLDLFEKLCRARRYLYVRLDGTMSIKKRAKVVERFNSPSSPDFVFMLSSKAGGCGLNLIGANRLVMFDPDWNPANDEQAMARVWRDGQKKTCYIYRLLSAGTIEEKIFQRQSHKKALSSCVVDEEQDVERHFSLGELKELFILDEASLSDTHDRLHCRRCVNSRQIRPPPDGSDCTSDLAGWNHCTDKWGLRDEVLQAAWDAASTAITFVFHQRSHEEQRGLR
# T1 sequence (P49327 whole entry): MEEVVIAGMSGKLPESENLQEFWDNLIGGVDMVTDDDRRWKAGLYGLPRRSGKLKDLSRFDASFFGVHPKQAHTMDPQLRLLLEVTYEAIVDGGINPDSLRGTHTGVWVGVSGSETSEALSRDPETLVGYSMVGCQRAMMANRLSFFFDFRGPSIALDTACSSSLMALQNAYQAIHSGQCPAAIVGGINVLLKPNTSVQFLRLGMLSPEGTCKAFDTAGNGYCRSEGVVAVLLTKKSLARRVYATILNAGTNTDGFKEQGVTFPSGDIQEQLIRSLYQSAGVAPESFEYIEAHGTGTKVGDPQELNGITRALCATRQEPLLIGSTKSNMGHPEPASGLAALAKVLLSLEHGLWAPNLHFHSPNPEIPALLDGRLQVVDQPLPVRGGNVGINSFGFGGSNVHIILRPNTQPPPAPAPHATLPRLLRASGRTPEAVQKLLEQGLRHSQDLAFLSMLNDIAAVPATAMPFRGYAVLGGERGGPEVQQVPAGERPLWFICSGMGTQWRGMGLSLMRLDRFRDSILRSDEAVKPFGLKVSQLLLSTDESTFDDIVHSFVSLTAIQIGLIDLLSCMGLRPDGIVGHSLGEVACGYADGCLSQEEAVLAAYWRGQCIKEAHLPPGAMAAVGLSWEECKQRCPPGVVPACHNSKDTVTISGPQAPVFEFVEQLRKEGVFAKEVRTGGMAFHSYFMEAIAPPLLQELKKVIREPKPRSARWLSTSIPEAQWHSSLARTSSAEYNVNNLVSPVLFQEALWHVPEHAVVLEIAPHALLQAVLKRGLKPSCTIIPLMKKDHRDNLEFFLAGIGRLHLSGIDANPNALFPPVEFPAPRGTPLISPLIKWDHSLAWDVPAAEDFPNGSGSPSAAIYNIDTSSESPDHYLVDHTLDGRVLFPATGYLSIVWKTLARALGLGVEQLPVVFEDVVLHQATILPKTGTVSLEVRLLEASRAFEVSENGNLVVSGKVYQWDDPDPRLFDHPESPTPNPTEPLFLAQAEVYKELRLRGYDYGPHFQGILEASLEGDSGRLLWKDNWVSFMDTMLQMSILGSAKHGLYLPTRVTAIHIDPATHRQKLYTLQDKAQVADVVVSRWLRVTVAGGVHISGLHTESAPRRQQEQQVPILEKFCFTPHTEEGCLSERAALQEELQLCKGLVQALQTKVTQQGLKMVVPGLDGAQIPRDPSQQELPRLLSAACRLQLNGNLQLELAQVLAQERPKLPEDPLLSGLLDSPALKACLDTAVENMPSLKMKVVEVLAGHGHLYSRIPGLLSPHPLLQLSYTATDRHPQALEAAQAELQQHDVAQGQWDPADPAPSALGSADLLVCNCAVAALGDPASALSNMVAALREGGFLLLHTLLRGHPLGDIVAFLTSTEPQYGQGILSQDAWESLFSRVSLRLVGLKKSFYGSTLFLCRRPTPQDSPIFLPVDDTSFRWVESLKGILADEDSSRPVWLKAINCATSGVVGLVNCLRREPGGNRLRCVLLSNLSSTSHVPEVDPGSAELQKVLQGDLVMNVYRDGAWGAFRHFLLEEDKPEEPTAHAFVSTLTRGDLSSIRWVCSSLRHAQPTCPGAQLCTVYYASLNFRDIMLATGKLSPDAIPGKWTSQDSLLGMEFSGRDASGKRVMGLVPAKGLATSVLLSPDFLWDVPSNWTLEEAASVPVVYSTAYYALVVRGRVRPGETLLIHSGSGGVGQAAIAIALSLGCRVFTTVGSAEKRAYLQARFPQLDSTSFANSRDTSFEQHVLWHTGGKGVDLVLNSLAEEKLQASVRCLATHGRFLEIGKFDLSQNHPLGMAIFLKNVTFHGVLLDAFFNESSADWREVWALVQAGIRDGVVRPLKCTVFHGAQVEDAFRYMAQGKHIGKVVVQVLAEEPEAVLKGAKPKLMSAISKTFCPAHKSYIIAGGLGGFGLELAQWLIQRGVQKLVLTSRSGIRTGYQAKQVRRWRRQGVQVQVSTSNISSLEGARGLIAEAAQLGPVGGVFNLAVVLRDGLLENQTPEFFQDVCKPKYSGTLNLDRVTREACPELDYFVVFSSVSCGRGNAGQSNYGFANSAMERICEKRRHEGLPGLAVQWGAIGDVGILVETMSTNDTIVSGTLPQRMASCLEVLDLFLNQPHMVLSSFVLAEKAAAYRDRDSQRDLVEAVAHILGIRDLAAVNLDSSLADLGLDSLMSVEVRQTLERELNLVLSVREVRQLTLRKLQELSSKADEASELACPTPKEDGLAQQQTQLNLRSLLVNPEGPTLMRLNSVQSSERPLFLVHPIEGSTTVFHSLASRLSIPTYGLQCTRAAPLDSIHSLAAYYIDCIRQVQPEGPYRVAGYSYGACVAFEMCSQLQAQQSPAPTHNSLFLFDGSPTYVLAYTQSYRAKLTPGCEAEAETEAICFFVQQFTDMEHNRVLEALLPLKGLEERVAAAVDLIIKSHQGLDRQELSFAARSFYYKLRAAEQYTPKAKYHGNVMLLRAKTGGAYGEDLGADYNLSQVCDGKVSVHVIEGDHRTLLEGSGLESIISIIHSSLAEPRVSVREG
# Chain of Paired box protein Pax-8 (Q06710 whole entry): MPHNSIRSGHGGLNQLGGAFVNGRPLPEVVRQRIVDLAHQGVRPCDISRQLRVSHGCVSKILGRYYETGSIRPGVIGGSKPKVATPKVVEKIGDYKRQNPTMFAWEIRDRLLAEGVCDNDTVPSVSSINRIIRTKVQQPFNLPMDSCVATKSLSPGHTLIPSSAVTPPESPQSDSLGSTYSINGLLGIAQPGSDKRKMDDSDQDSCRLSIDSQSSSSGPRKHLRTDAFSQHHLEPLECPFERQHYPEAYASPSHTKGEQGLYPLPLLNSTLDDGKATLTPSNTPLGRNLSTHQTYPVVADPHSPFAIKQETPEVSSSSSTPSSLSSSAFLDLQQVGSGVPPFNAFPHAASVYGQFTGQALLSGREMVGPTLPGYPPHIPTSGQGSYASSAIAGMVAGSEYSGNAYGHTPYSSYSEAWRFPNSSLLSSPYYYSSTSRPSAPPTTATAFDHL
structure (smiles),measurement,setting,value
Cc1ccc(C(=O)NCC(=O)OCc2nnc(-c3ccc([N+](=O)[O-])cc3)o2)s1,IC50,Fatty acid synthase [1],15.1 µM (active)
same,IC50,Fatty acid synthase [2],12.7 µM (active)
COc1ccc(NC(=O)CSC2CC(=O)N(c3ccc4c(c3)OCCO4)C2=O)cc1 (stereo unspecified),IC50,Leucine aminopeptidase,16.1 µM (active)
CC1(C)CCN(Cc2ccccc2)C1CC#N (stereo unspecified),IC50,[3],> 100 µM (active)
COC(=O)c1c(NC(=O)C2C3CCC(O3)C2C(=O)O)sc2c1CCCCCC2 (stereo unspecified),IC50,Leucine aminopeptidase,48.9 µM (active)
NC(=O)c1c(NC(=S)Nc2ccc(F)cc2)sc2c1CCCC2,IC50,Leucine aminopeptidase,92 µM (active)
CC1(C)Oc2ccc(C(=O)NC3CCCC3)cc2N(CC(=O)N2CCOCC2)C1=O,IC50,[3],> 100 µM (active)
CCOC(=O)c1c(CN(C)C)n(C)c2c(O)c(N=NC(N)=O)c3ccc(Br)cc3c12,AC50,[4],11.6 µM (active)
same,IC50,[5],12.1 µM (active)
COc1ccc(S(=O)(=O)Nc2ccc3c(c2)CC(=O)N([C@@H](C)CO)C[C@@H](C)[C@@H](CN(C)Cc2ccc(-c4ccccc4)cc2)O3)cc1,AC50,Paired box protein Pax-8,24.6 µM (active)
same,AC50,[6],42 µM (active)
same,AC50,[7],44.2 µM (active)
same,AC50,[8],> 70 µM (inactive)
COc1ccc(NCc2nnc(SCC(=O)N3CCCc4ccccc43)o2)cc1,IC50,[3],> 100 µM (active)
CCc1nnc(NC(=O)CSc2nnc(-c3ccc(NS(=O)(=O)c4ccccc4)cc3)o2)s1,IC50,Leucine aminopeptidase,< 1 µM (active)
same,IC50,Aminopeptidase N,59.8 µM (active)
CCN1C(=O)N(CC)C(=O)C2(Cc3ccccc3N3CCN(c4ccccc4)CC32)C1=O (stereo unspecified),IC50,[3],> 100 µM (active)
CCc1nc2c(OCc3ccc(Cl)cc3Cl)cccn2c1N(C=O)Cc1ccc(OC)cc1,IC50,Fatty acid synthase [1],2.45 µM (active)
same,IC50,Fatty acid synthase [2],1.46 µM (active)
CCc1cc2c(=O)n(-c3ccc(C)cc3)cnc2s1,IC50,[3],> 100 µM (active)
CCN(CC)CCCN(C(=O)c1ccc(Br)cc1)c1nc(-c2ccc(OC)cc2)cs1,AC50,[4],17.2 µM (active)
COc1ccc(CCn2c(=N)c(C(=O)NCC3CCCO3)cc3c(=O)n4cccc(C)c4nc32)cc1OC (stereo unspecified),IC50,H9c2,> 79 µM (inactive)
same,AC50,[9],14.4 µM (active)
O=C(NCCCN1CCOCC1)c1cnn2c(-c3ccccc3)cc(-c3ccccc3)nc12,AC50,[9],27 µM (active)
O=C(CSc1nnc[nH]1)Nc1ccc(Br)cc1F,IC50,Leucine aminopeptidase,29.8 µM (active)
CCN(Cc1ccccc1)C(=O)c1cnc2ccc(S(=O)(=O)N(C)CCC#N)cc2c1O,IC50,Fatty acid synthase [1],12 µM (active)
same,IC50,Fatty acid synthase [2],7.6 µM (active)
Cc1csc(N2CCN(c3cc4c(cc3Cl)nc(-c3ccncc3)n4CCCN3CCCC3)CC2)n1,AC50,[4],4.61 µM (active)
CN(C)CCCNc1nc2cc(-c3ccc(C(=O)N4CCN(C)CC4)cc3)sc2c(=O)n1C,AC50,[9],47.7 µM (active)
O=C(NCCCCc1ccccc1)c1cccc([N+](=O)[O-])c1,IC50,Fatty acid synthase [1],11.1 µM (active)
same,IC50,Fatty acid synthase [2],8.43 µM (active)
